The values that follow come from PubChem BioAssay AID2004 (Sanford-Burnham Center for Chemical Genomics, 2009).

The target in this experiment is Dual specificity protein phosphatase 3 (Homo sapiens) (UniProt P51452). Put plainly: PubChem AID 2004. The settings on record: recombinant VHR phosphatase, colorimetric substrate read-out.

pKi: −log10 of the molar value.

Sequence of Dual specificity protein phosphatase 3 (Homo sapiens) (P51452 whole entry, looked up): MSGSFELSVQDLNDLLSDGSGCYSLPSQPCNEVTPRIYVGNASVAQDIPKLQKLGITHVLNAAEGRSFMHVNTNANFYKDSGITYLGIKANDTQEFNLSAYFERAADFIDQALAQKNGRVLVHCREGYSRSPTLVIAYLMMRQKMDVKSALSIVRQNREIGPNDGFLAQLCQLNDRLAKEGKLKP

The pKi is −log10 of the Ki, conventionally taken in molar units. With `O=C1NC(=S)N(c2ccc(F)cc2)C(=O)/C1=C/c1ccc(Br)o1`, the pKi is 4.92.

Regarding `O=C1C(Cl)=C/C(=N\S(=O)(=O)c2ccc(Cl)cc2)C(Cl)=C1Cl`, the pKi is 4.87.

Consider `O=C1/C(=C/C=C/c2ccccc2)SC(=S)N1CCS(=O)(=O)O`, for which the pKi is 6.09.

For the molecule `Cc1ccc(C)n1-c1ccc(SCC(=O)O)cc1`, the pKi was 5.68.

With `Cc1ccc(C)n1-c1ccc(C(=O)O)c(O)c1`, the pKi is 4.89.

As to `S=C(Nc1ccc2c(c1)oc1ccccc12)Nc1cccc2ccccc12`, the pKi was 5.53.

For the molecule `COc1ccc(N2C(=O)/C(=C/c3ccc(I)o3)C(=O)NC2=S)cc1`, the pKi was 5.35.

`O=C(O)C(Cc1ccccc1)N1C(=O)/C(=C/C=C/c2ccccc2)SC1=S` (stereo not drawn): the pKi was 5.70.

Regarding `O=c1[nH]c(=S)n(-c2cccc(Cl)c2)c(O)c1/C=C1/C=CC=N1`, the pKi was 5.46.

With `C=CCN1C(=O)/C(=C\C=C\c2ccco2)C(=O)NC1=S`, the pKi was 4.80.

Turning to `O=C1c2cccc3c4ccccc4n(c23)C(=O)C1(O)O`, the pKi is 4.86.

Regarding `O=C(/C=C/c1ccc(-c2ccccc2[N+](=O)[O-])o1)Nc1ccc(-c2nc3ccccc3o2)cc1`, the pKi was 5.75.

For the molecule `CCOC(=O)c1[nH]nc2c1C(=O)N(c1ccc(Br)cc1)C2=O`, the pKi is 5.58.

With `CC1=C(C#N)c2nc(N)c(C#N)c(C)c2/C1=C/c1ccc(-c2ccc(C(=O)O)c(Cl)c2)o1`, the pKi was 5.41.

For `O=C1NC(=O)N(c2cccc(Br)c2)C(=O)/C1=C/c1ccc(-c2ccc(C(=O)O)cc2)o1`, the pKi was 4.79.

Consider `COc1ccc(OC)c2c1C(=O)c1ccccc1C2=O`, for which the pKi is 5.51.

For the molecule `O=C(O)c1cccc(-c2ccc(/C=N/Nc3ccc([N+](=O)[O-])cn3)o2)c1`, the pKi was 4.86.

On to `O=C(/C=C/c1ccco1)/C=C/c1ccc(-c2ccc(Cl)c(Cl)c2)o1`, for which the pKi is 4.80.
